Read-outs that look alike come from different tables or passages of the source.
Experiments:
rat α4β2 nAChRs = target: T1, rat α4β2 nAChRs (Rattus norvegicus, UniProt P09483+P12390); assay: [3H]epibatidine competition binding, rat α4β2 nAChRs expressed in HEK cells
T1 construct: expressed in transfected cells; host or cells: HEK cells (membrane homogenates)
Experimental: (§1) Briefly, cultured cells at >80% confluence were removed from their flasks (80 cm^2) with a disposable cell scraper and placed in 10 ml of 50 mM Tris HCl buffer (pH 7.4, 4° C.). The cell suspension was centrifuged at 10,000×g for 5 min and the pellet was collected. For cells treated chronically with nicotinic agonists during culturing, the pellet was washed two more times by centrifugation in fresh buffer to remove residual drug. […] Bound and free ligands were separated by vacuum filtration through Whatman GF/C filters treated with 0.5% polyethylenimine. The filter-retained radioactivity was measured by liquid scintillation counting. Specific binding was defined as the difference between total binding and nonspecific binding. Data from saturation and competition binding assays were analyzed using Prism 4 (GraphPad Software, San Diego, Calif.).
(§2) All ligand binding assays were carried out using rat or human nAChRs heterologously expressed in human cells or in native rat brain tissues.

human α4β2 nAChRs [1] = target: T2, human α4β2 nAChRs (Homo sapiens, UniProt P17787+P43681); assay: biochemical; assay type: binding
T2 construct: expressed in transfected cells; the efflux text says only stably transfected cells
Experimental: as §1, with “drug. The cell pellet was then homogenized in 10 ml buffer with a polytron homogenizer (Model PT2100, 12 mm aggregate, 26,000 rpm, 20 seconds) and centrifuged at 36,000 g for 10 min at 4° C. The membrane pellet was resuspended in fresh buffer, and aliquots of the membrane preparation equivalent to 30 to 200 μg protein were used for binding assays.” for “drug.”
as §2

rat α3β4 nAChRs [2] = target: T3, rat α3β4 nAChRs (Rattus norvegicus, UniProt P04757+P12392); assay: [3H]epibatidine competition binding, rat α3β4 nAChRs expressed in HEK cells
T3 construct: expressed in transfected cells; the efflux text says only stably transfected cells
Experimental: as §1, with “drug. The cell pellet was then homogenized in 10 ml buffer with a polytron homogenizer (Model PT2100, 12 mm aggregate, 26,000 rpm, 20 seconds) and centrifuged at 36,000 g for 10 min at 4° C. The membrane pellet was resuspended in fresh buffer, and aliquots of the membrane preparation equivalent to 30 to 200 μg protein were used for binding assays.” for “drug.”
as §2

human α4β2 nAChRs [3] = target: T2, human α4β2 nAChRs; assay type: cell-based; settings: for Agonist Activity α4β2: stimulation of 86Rb+ efflux
Experimental: (§3) In brief, cells were plated into 24-well plates coated with poly-D-lysine. […] The cells were then incubated in growth medium (0.5 ml/well) containing ^86Rb^+ (2 μCi/ml) for 4 hour at 37° C. The loading mixture was then aspirated, and the cells were washed four times with 1 ml buffer (15 mM HEPES, 140 mM NaCl, 2 mM KCl, 1 mM MgSO4, 1.8 mM CaCl2, 11 mM Glucose, pH 7.4). One ml of buffer with or without compounds to be tested was then added to each well. After incubation for 2 min, the assay buffer was collected for measurements of ^86Rb^+ released from the cells. Cells were then lysed by adding 1 ml of 100 mM NaOH to each well, and the lysate was collected for determination of the amount of ^86Rb^+ that was in the cells at the end of the efflux assay. Radioactivity of assay samples and lysates was measured by liquid scintillation counting. Total loading (cpm) was calculated as the sum of the assay sample and the lysate of each well. The amount of ^86Rb^+ efflux was expressed as a percentage of […] loaded. […] IC50 values were determined by nonlinear least-squares regression analyses (GraphPad, San Diego, Calif.).
(§4) The agonist activities of ligands on nAChRs were assessed by measuring agonist-stimulated ^86Rb^+ efflux from stably transfected cells.

rat α3β4 nAChRs [4] = target: T3, rat α3β4 nAChRs; assay type: cell-based; settings: for Agonist Activity α3β4: stimulation of 86Rb+ efflux
Experimental: as §3, §4

human α4β2 nAChRs [5] = target: T2, human α4β2 nAChRs; assay: Inhibition of nicotine-stimulated 86Rb+ efflux, cells expressing human α4β2 nAChRs; assay type: cell-based
Experimental: as §3

rat α3β4 nAChRs [6] = target: T3, rat α3β4 nAChRs; assay: Inhibition of nicotine-stimulated 86Rb+ efflux, cells expressing rat α3β4 nAChRs; assay type: cell-based
Experimental: as §3

[7] = added simultaneously with nicotine

OCCCCC#Cc1cncc(OC[C@@H]2CCN2)c1 [Sazetidine-A, 6-(5-(((S)-azetidin-2-yl)methoxy)pyridin-3-yl)hex-5-yn-1-ol]
Ki (rat α4β2 nAChRs): 0.41 ± 0.16 nM | Selectivity (Ki ratio: rat α3β4/rat α4β2) (rat α4β2 nAChRs; ratio of Ki values): 24,000 | Ki (rat α4β2 nAChRs; read-out: Equilibrium binding affinity (Ki, nM) α4β2, example tables, species not given): 0.41 nM | Ki (human α4β2 nAChRs [1]): 0.64 ± 0.32 nM | Ki (rat α3β4 nAChRs [2]): 10000 nM | EC50 for activation of channel function (86Rb+ efflux) (human α4β2 nAChRs [3]; human α4β2 receptors, mean ± SEM, FIG. 2A): could not be calculated | Agonist Activity α4β2 (human α4β2 nAChRs [3]): Not detected | Agonist Activity α4β2 (human α4β2 nAChRs [3]; listed as sazetidine-A): no agonist activity | EC50 for activation of channel function (86Rb+ efflux) (rat α3β4 nAChRs [4]; rat α3β4 receptors, mean ± SEM, FIG. 2B): could not be calculated | Agonist Activity α3β4 (rat α3β4 nAChRs [4]): Not detected | Agonist Activity α3β4 (rat α3β4 nAChRs [4]; listed as sazetidine-A): no agonist activity | concentration that nearly completely inhibited nicotine activation of α4β2 receptors (human α4β2 nAChRs [5]; 10 min preincubation): ~200 nM | IC50 (human α4β2 nAChRs [5]; Acute Antagonist Potency (IC50(A), nM) α4β2, applied simultaneously with nicotine): ≥ 10000 nM | IC50 (human α4β2 nAChRs [5]; Desensitization Potency (IC50(D,10 min), nM) α4β2, 10 min pretreatment before nicotine): 26 nM | IC50 (human α4β2 nAChRs [5]; IC50 α4β2 nAChRs, 0 min Pretreatment, added simultaneously with 100 μM nicotine, mean ± SEM of 3 to 7 experiments): > 10000 nM | IC50 (human α4β2 nAChRs [5]; IC50 α4β2 nAChRs, 10 min Pretreatment, 10 min preincubation, then 100 μM nicotine, mean ± SEM of 3 to 7 experiments): ~30 nM | acute antagonist activity, blockade of nicotine-stimulated 86Rb+ efflux, α4β2 (human α4β2 nAChRs [5]; [7]): no antagonist activity | blocking of α3β4 nAChRs (rat α3β4 nAChRs [6]; 10 min preincubation): ineffective | IC50 (rat α3β4 nAChRs [6]; Acute Antagonist Potency (IC50(A), nM) α3β4, applied simultaneously with nicotine): > 10000 nM | IC50 (rat α3β4 nAChRs [6]; Desensitization Potency (IC50(D,10 min), nM) α3β4, 10 min pretreatment before nicotine): > 10000 nM | IC50 (rat α3β4 nAChRs [6]; IC50 α3β4 nAChRs, 0 min Pretreatment, added simultaneously with 100 μM nicotine, mean ± SEM of 3 to 7 experiments): > 10000 nM | IC50 (rat α3β4 nAChRs [6]; IC50 α3β4 nAChRs, 10 min Pretreatment, 10 min preincubation, then 100 μM nicotine, mean ± SEM of 3 to 7 experiments): > 10000 nM | acute antagonist activity, blockade of nicotine-stimulated 86Rb+ efflux, α3β4 (rat α3β4 nAChRs [6]; [7]): no antagonist activity
